Assay results from patent publication US7491545B2, “Excitation ratiometric fluoroscent biosensor for zinc ion at picomolar levels” (priority 2002, dated 2009).
“Also recorded” adds a separate entry of the source.

Experiments:
holo carbonic anhydrase = holo carbonic anhydrase (Homo sapiens, UniProt P00918); settings: read-out: Kd of binding to holoprotein; cited from earlier work
cell membranes = assay: Cell permeation of donor fluorophore

CN(C)c1ccc(-c2cnc(-c3ccc(S(N)(=O)=O)cc3)o2)cc1 [Dapoxyl sulfonamide]
Kd (holo carbonic anhydrase): 200 nM | cell permeability (cell membranes): readily penetrates cell membranes; also recorded: rapidly cell-permeant
